Experimental data published in PubChem BioAssay (NCI).
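Protocol summary: plate cells (96-well), add compound at 5 concentrations, incubate 48 h, interpolate endpoints linearly. GI50: concentration for 50% inhibition of growth. TGI: concentration producing complete growth inhibition.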

Legend:
Experiment in all cases: DTP human tumour cell line panel, 48 h
OVCAR-4 ovarian = tested on: OVCAR-4 ovarian
OVCAR-5 ovarian = tested on: OVCAR-5 ovarian
HCC-2998 colon = tested on: HCC-2998 colon
MDA-MB-435 = tested on: MDA-MB-435
DU-145 prostate = tested on: DU-145 prostate
HOP-62 NSCLC = tested on: HOP-62 NSCLC
NCI/ADR-RES ovarian = tested on: NCI/ADR-RES ovarian
RXF 393 renal = tested on: RXF 393 renal
UACC-62 melanoma = tested on: UACC-62 melanoma
HCT-15 colon = tested on: HCT-15 colon
SK-MEL-5 melanoma = tested on: SK-MEL-5 melanoma
LOX IMVI melanoma = tested on: LOX IMVI melanoma
UO-31 renal = tested on: UO-31 renal
HL-60(TB) leukemia = tested on: HL-60(TB) leukemia
SN12C renal = tested on: SN12C renal
HS 578T breast = tested on: HS 578T breast
MCF7 breast = tested on: MCF7 breast
A498 renal = tested on: A498 renal
786-0 renal = tested on: 786-0 renal
TK-10 renal = tested on: TK-10 renal
RPMI-8226 leukemia = tested on: RPMI-8226 leukemia
SF-539 CNS = tested on: SF-539 CNS
SW-620 colon = tested on: SW-620 colon
NCI-H23 lung = tested on: NCI-H23 lung
NCI-H226 lung = tested on: NCI-H226 lung
KM12 colon = tested on: KM12 colon
EKVX NSCLC = tested on: EKVX NSCLC
HOP-92 NSCLC = tested on: HOP-92 NSCLC
A549 NSCLC = tested on: A549 NSCLC
MALME-3M melanoma = tested on: MALME-3M melanoma
SK-OV-3 ovarian = tested on: SK-OV-3 ovarian
OVCAR-3 ovarian = tested on: OVCAR-3 ovarian
IGROV1 ovarian = tested on: IGROV1 ovarian
SF-268 CNS = tested on: SF-268 CNS
ACHN renal = tested on: ACHN renal
CAKI-1 renal = tested on: CAKI-1 renal
NCI-H460 lung = tested on: NCI-H460 lung
OVCAR-8 ovarian = tested on: OVCAR-8 ovarian
T-47D breast = tested on: T-47D breast
BT-549 breast = tested on: BT-549 breast
PC-3 prostate = tested on: PC-3 prostate
UACC-257 melanoma = tested on: UACC-257 melanoma
SF-295 CNS = tested on: SF-295 CNS
NCI-H522 lung = tested on: NCI-H522 lung
HCT-116 colon = tested on: HCT-116 colon
K-562 leukemia = tested on: K-562 leukemia
SK-MEL-2 melanoma = tested on: SK-MEL-2 melanoma
MDA-MB-231 breast = tested on: MDA-MB-231 breast
SNB-75 CNS = tested on: SNB-75 CNS
M14 melanoma = tested on: M14 melanoma
MOLT-4 leukemia = tested on: MOLT-4 leukemia
HT29 colon = tested on: HT29 colon
U251 CNS = tested on: U251 CNS
SK-MEL-28 melanoma = tested on: SK-MEL-28 melanoma
COLO 205 colon = tested on: COLO 205 colon
SNB-19 CNS = tested on: SNB-19 CNS
CCRF-CEM leukemia = tested on: CCRF-CEM leukemia
SR leukemia = tested on: SR leukemia

CCCCCCCCCCCC1=NC(C)(C)CN1CCO
GI50 (OVCAR-4 ovarian): 7.45 µM | TGI (OVCAR-4 ovarian): 21.5 µM | GI50 (OVCAR-5 ovarian): 15.9 µM | TGI (OVCAR-5 ovarian): 30.9 µM | GI50 (HCC-2998 colon): 1.87 µM | TGI (HCC-2998 colon): 3.63 µM | GI50 (MDA-MB-435): 2.51 µM | TGI (MDA-MB-435): 6.98 µM | GI50 (DU-145 prostate): 10.2 µM | TGI (DU-145 prostate): 21.9 µM | GI50 (HOP-62 NSCLC): 4.6 µM | TGI (HOP-62 NSCLC): 16.2 µM | GI50 (NCI/ADR-RES ovarian): 13.9 µM | TGI (NCI/ADR-RES ovarian): 29.5 µM | GI50 (RXF 393 renal): 3.94 µM | TGI (RXF 393 renal): 10.5 µM | GI50 (UACC-62 melanoma): 1.97 µM | TGI (UACC-62 melanoma): 4.41 µM | GI50 (HCT-15 colon): 1.98 µM | TGI (HCT-15 colon): 4.42 µM | GI50 (SK-MEL-5 melanoma): 12 µM | TGI (SK-MEL-5 melanoma): 25.1 µM | GI50 (LOX IMVI melanoma): 1.97 µM | TGI (LOX IMVI melanoma): 4.65 µM | GI50 (UO-31 renal): 7.25 µM | TGI (UO-31 renal): 21 µM | GI50 (HL-60(TB) leukemia): 3.3 µM | TGI (HL-60(TB) leukemia): 13.7 µM | GI50 (SN12C renal): 9.95 µM | TGI (SN12C renal): 24.8 µM | GI50 (HS 578T breast): 7.51 µM | TGI (HS 578T breast): 25.6 µM | GI50 (MCF7 breast): 2.41 µM | TGI (MCF7 breast): 6.09 µM | GI50 (A498 renal): 15.6 µM | TGI (A498 renal): 31.8 µM | GI50 (786-0 renal): 6.09 µM | TGI (786-0 renal): 19 µM | GI50 (TK-10 renal): 10.8 µM | TGI (TK-10 renal): 28.9 µM | GI50 (RPMI-8226 leukemia): 2.3 µM | TGI (RPMI-8226 leukemia): 7.46 µM | GI50 (SF-539 CNS): 4.37 µM | TGI (SF-539 CNS): 8.79 µM | GI50 (SW-620 colon): 1.95 µM | TGI (SW-620 colon): 3.94 µM | GI50 (NCI-H23 lung): 5.56 µM | TGI (NCI-H23 lung): 18.6 µM | GI50 (NCI-H226 lung): 15.4 µM | TGI (NCI-H226 lung): 36.2 µM | GI50 (KM12 colon): 2.85 µM | TGI (KM12 colon): 7.57 µM | GI50 (EKVX NSCLC): 10.7 µM | TGI (EKVX NSCLC): 29.5 µM | GI50 (HOP-92 NSCLC): 1.29 µM | TGI (HOP-92 NSCLC): 8.11 µM | GI50 (A549 NSCLC): 6.93 µM | TGI (A549 NSCLC): 21.9 µM | GI50 (MALME-3M melanoma): 10.2 µM | TGI (MALME-3M melanoma): 29 µM | GI50 (SK-OV-3 ovarian): 14.8 µM | TGI (SK-OV-3 ovarian): 29.2 µM | GI50 (OVCAR-3 ovarian): 5.87 µM | TGI (OVCAR-3 ovarian): 11.3 µM | GI50 (IGROV1 ovarian): 2.57 µM | TGI (IGROV1 ovarian): 6.67 µM | GI50 (SF-268 CNS): 6.68 µM | TGI (SF-268 CNS): 20.3 µM | GI50 (ACHN renal): 9.05 µM | TGI (ACHN renal): 23.5 µM | GI50 (CAKI-1 renal): 4.57 µM | TGI (CAKI-1 renal): 18.9 µM | GI50 (NCI-H460 lung): 2.88 µM | TGI (NCI-H460 lung): 7.66 µM | GI50 (OVCAR-8 ovarian): 10.7 µM | TGI (OVCAR-8 ovarian): 29.9 µM | GI50 (T-47D breast): 4.04 µM | TGI (T-47D breast): 16.9 µM | GI50 (BT-549 breast): 13.6 µM | TGI (BT-549 breast): 34.3 µM | GI50 (PC-3 prostate): 3.29 µM | TGI (PC-3 prostate): 17.2 µM | GI50 (UACC-257 melanoma): 3.63 µM | TGI (UACC-257 melanoma): 11.5 µM | GI50 (SF-295 CNS): 2.98 µM | TGI (SF-295 CNS): 9.85 µM | GI50 (NCI-H522 lung): 4.57 µM | TGI (NCI-H522 lung): 13 µM | GI50 (HCT-116 colon): 1.94 µM | TGI (HCT-116 colon): 3.76 µM | GI50 (K-562 leukemia): 2.44 µM | TGI (K-562 leukemia): 5.57 µM | GI50 (SK-MEL-2 melanoma): 8.15 µM | TGI (SK-MEL-2 melanoma): 22.4 µM | GI50 (MDA-MB-231 breast): 3.78 µM | TGI (MDA-MB-231 breast): 15.2 µM | GI50 (SNB-75 CNS): 7.93 µM | TGI (SNB-75 CNS): 21.6 µM | GI50 (M14 melanoma): 1.92 µM | TGI (M14 melanoma): 3.74 µM | GI50 (MOLT-4 leukemia): 3.23 µM | TGI (MOLT-4 leukemia): 9.94 µM | GI50 (HT29 colon): 2.12 µM | TGI (HT29 colon): 5.05 µM | GI50 (U251 CNS): 2.8 µM | TGI (U251 CNS): 9.46 µM | GI50 (SK-MEL-28 melanoma): 2.12 µM | TGI (SK-MEL-28 melanoma): 4.35 µM | GI50 (COLO 205 colon): 1.85 µM | TGI (COLO 205 colon): 3.45 µM | GI50 (SNB-19 CNS): 15.1 µM | TGI (SNB-19 CNS): 30.9 µM | GI50 (CCRF-CEM leukemia): 3.54 µM | TGI (CCRF-CEM leukemia): 18.4 µM | GI50 (SR leukemia): 2.38 µM | TGI (SR leukemia): 5.79 µM
